What was measured:
[1] = test system: IL-2 stimulated STAT5 phosphorylation in Tall-1 human T cell line (JAK3); assay: Cellular JAK3 potency assay: inhibition of IL-2 stimulated pSTAT5 in Tall-1 T cells; type: cell-based; details: IL-2 stimulated pSTAT5, Tall-1 T cells
Experimental: Assay 2: Cellular JAK3 Potency Assay: Inhibition of IL-2 Stimulated pSTAT5 in Tall-1 T Cells
The potency of test compounds for inhibition of interleukin-2 (IL-2) stimulated STAT5 phosphorylation was measured in the Tall-1 human T cell line (DSMZ) using AlphaLisa. Because IL-2 signals through JAK3, this assay provides a measure of JAK3 cellular potency.
Phosphorylated STAT5 was measured via the AlphaLISA SureFire Ultra pSTAT5 (Tyr694/699) kit (PerkinElmer).
Human T cells from the Tall-1 cell line were cultured in a 37° C., 5% CO2 humidified incubator in RPMI (Life Technologies) supplemented with 15% Heat Inactivated Fetal Bovine Serum (FBS, Life Technologies), 2 mM Glutamax (Life Technologies), 25 mM HEPES (Life Technologies) and 1× Pen/Strep (Life Technologies). Compounds were serially diluted in DMSO and dispensed acoustically to empty wells. Assay media (phenol red-free DMEM (Life Technologies) supplemented with 10% FBS (ATCC)) was dispensed (4 μL/well) and plates shaken at 900 rpm for 10 inns. Cells were seeded at 45,000 cells/well in assay media (4 μL/well), and incubated at 37° C., 5% CO2 for 1 hour, followed by the addition of IL-2 (R&D Systems; final concentration 300 ng/ml) in pre-warmed assay media (4 μL) for 30 minutes. After cytokine stimulation, cells were lysed with 6 ul of 3× AlphaLisa Lysis Buffer (PerkinElmer) containing 1× PhosStop and Complete tablets (Roche). The lysate was shaken at 900 rpm for 10 minutes at room temperature (RT). Phosphorylated STAT5 was measured via the pSTAT5 AlphaLisa kit (PerkinElmer). Freshly prepared acceptor bead mixture was dispensed onto lysate (5 μL) under green filtered <100 lux light. Plates were shaken at 900 rpm for 2 mins, briefly spun down, and incubated for 2 hrs at RT in the dark. Donor beads were dispensed (5 μL) under green filtered <100 lux light. Plates were shaken at 900 rpm for 2 minutes, briefly spun down, and incubated overnight at RT in the dark. Luminescence was measured with excitation at 689 nm and emission at 570 nm using an EnVision plate reader (PerkinElmer) under green filtered <100 lux light.
To determine the inhibitory potency of test compounds in response to IL-2, the average emission intensity of beads bound to pSTAT5 was measured in a human T cell line. IC50 values were determined from analysis of the inhibition curves of signal intensity versus compound concentration. Data are expressed as pIC50 (negative decadic logarithm IC50) values (mean standard deviation).

JAK3 = JAK3 (Homo sapiens (Human), UniProt P52333); assay: Biochemical JAK3 kinase assay (LanthaScreen); details: for JAK3 (pKi)-JAK1 (pKi): selectivity JAK3 over JAK1, difference of pKi
Sequence of JAK3 (P52333 whole entry): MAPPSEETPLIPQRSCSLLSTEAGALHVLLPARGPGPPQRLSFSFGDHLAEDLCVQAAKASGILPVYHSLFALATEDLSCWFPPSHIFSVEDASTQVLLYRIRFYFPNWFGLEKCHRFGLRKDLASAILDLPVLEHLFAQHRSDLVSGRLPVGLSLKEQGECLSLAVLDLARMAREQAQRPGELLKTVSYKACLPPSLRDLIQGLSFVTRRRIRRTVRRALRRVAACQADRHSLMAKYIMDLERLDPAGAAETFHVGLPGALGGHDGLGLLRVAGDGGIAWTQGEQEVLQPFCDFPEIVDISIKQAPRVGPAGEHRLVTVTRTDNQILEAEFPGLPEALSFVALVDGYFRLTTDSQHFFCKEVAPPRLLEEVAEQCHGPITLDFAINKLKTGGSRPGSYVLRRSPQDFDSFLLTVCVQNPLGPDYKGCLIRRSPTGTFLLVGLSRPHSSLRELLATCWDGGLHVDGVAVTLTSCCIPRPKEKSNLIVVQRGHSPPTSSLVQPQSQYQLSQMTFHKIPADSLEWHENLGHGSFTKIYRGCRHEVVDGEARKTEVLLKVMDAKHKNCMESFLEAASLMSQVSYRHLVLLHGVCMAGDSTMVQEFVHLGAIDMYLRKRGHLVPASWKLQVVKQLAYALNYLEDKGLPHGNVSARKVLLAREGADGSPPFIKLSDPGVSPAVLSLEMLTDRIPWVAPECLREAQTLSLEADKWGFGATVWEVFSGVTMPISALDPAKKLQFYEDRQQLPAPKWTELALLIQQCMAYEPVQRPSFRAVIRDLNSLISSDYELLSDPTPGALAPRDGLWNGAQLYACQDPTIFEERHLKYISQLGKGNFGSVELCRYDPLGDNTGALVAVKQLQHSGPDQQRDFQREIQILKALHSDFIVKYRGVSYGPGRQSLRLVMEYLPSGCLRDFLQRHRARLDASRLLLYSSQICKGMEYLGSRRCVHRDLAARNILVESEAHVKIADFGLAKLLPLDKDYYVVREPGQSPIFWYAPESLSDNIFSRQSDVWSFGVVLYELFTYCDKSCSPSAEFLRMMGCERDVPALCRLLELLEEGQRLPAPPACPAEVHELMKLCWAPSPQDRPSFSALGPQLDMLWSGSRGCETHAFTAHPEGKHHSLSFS
Experimental: (§1) Assay 1: Biochemical JAK and Tyk2 Kinase Assays
(§2) A panel of four LanthaScreen JAK biochemical assays (JAK1, 2, 3 and Tyk2) were carried in a common kinase reaction buffer (50 mM HEPES, pH 7.5, 0.01% Brij-35, 10 mM MgCl2, and 1 mM EGTA). Recombinant GST-tagged JAK enzymes and a GFP-tagged STAT1 peptide substrate were obtained from Life Technologies.
(§3) Serially or discretely diluted compounds were pre-incubated with each of the four JAK enzymes and the substrate in white 384-well microplates (Corning) at ambient temperature for 1 h. ATP was subsequently added to initiate the kinase reactions in 10 μL total volume, with 1% DMSO. […] Kinase reactions were allowed to proceed for 1 hour at ambient temperature before a 10 μL preparation of EDTA (10 mM final concentration) and Tb-anti-pSTAT1 (pTyr701) antibody (Life Technologies, 2 nM final concentration) in TR-FRET dilution buffer (Life Technologies) was added. The plates were allowed to incubate at ambient temperature for 1 h before being read on the EnVision reader (Perkin Elmer). Emission ratio signals (520 nm/495 nm) were recorded and utilized to calculate the percent inhibition values based on DMSO and background controls.
(§4) For dose-response analysis, percent inhibition data were plotted vs. compound concentrations, and IC50 values were determined from a 4-parameter robust fit model with the Prism software (GraphPad Software). Results were expressed as pIC50 (negative logarithm of IC50) and subsequently converted to pKi (negative logarithm of dissociation constant, Ki) using the Cheng-Prusoff equation.

JAK1 = JAK1 (Homo sapiens (Human), UniProt P23458); assay: Biochemical JAK1 kinase assay (LanthaScreen)
Sequence of JAK1 (P23458 whole entry): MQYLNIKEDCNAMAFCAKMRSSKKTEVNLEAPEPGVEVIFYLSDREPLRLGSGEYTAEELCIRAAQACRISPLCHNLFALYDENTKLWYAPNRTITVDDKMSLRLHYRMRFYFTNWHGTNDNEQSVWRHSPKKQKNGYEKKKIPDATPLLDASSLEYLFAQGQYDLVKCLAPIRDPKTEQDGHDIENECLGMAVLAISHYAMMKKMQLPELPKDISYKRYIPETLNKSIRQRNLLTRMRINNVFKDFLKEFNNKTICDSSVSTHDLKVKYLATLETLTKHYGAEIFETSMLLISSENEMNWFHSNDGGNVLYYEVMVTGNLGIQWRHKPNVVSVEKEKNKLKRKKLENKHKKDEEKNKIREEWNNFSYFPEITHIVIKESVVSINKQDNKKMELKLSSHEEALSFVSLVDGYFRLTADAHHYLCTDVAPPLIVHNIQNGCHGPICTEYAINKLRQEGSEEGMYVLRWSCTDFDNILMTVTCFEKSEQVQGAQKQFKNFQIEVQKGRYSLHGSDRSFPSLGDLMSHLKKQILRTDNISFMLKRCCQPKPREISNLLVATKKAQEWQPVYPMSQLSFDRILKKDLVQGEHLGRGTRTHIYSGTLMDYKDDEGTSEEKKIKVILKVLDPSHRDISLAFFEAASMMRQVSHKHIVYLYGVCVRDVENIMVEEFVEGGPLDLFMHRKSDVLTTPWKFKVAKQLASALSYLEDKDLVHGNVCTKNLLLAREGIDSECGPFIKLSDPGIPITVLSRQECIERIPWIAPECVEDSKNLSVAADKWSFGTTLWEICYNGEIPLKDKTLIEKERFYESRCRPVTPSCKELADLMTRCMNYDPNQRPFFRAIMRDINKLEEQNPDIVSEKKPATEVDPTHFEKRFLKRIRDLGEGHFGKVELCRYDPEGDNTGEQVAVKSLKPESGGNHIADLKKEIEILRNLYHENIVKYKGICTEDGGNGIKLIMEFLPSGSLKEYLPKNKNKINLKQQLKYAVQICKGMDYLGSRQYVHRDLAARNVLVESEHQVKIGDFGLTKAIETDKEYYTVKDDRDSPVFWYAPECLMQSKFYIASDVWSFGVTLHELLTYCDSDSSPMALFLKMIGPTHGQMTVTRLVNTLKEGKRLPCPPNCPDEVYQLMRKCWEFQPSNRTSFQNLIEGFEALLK
Experimental: as §1, §2, §3, §4

Row | Compound | Tall-1 (pIC50) [1] | JAK 3 (pKi) (JAK3) | JAK3 (pKi)-JAK1 (pKi) (JAK3) | JAK 1 (pKi) (JAK1)
1 | C=CC(=O)N1CC(CCn2c(=O)ccc3cnc(Nc4cnn(CCOC)c4)nc32)C1 [Example 21] | C (C represents a pIC50 value between 6 and 6.7 (IC50 between 1 μM and 200 nM)) | B (B represents pKi value between 9 and 10 (Ki between 1 nM and 0.1 nM)) | A (A represents a value of 3 or above) | E (E represents a pKi value of 7 or below (Ki of 100 nM or above))
2 | C=CC(=O)N1CC(CCn2c(=O)ccc3cnc(Nc4cnn(CCN(C)C)c4)nc32)C1 [Example 22] | C (C represents a pIC50 value between 6 and 6.7 (IC50 between 1 μM and 200 nM)) | B (B represents pKi value between 9 and 10 (Ki between 1 nM and 0.1 nM)) | A (A represents a value of 3 or above) | E (E represents a pKi value of 7 or below (Ki of 100 nM or above))
3 | C=CC(=O)N1CC(CCn2c(=O)ccc3cnc(Nc4ccc(N5CCOCC5)cn4)nc32)C1 [Example 29] | C (C represents a pIC50 value between 6 and 6.7 (IC50 between 1 μM and 200 nM)) | B (B represents pKi value between 9 and 10 (Ki between 1 nM and 0.1 nM)) | A (A represents a value of 3 or above) | E (E represents a pKi value of 7 or below (Ki of 100 nM or above))
4 | C=CC(=O)N1CCN(CCn2c(=O)ccc3cnc(Nc4ccccc4)nc32)CC1 [Example 40] | C (C represents a pIC50 value between 6 and 6.7 (IC50 between 1 μM and 200 nM)) | B (B represents pKi value between 9 and 10 (Ki between 1 nM and 0.1 nM)) | A (A represents a value of 3 or above) | E (E represents a pKi value of 7 or below (Ki of 100 nM or above))
5 | C=CC(=O)N1CCN(CCn2c(=O)ccc3cnc(Nc4ccc(N5CCOCC5)c(F)c4)nc32)CC1 [Example 41] | C (C represents a pIC50 value between 6 and 6.7 (IC50 between 1 μM and 200 nM)) | B (B represents pKi value between 9 and 10 (Ki between 1 nM and 0.1 nM)) | A (A represents a value of 3 or above) | E (E represents a pKi value of 7 or below (Ki of 100 nM or above))
6 | C=CC(=O)N1CCN(CCn2c(=O)ccc3cnc(Nc4cnn(CCOC(C)C)c4)nc32)CC1 [Example 42] | C (C represents a pIC50 value between 6 and 6.7 (IC50 between 1 μM and 200 nM)) | B (B represents pKi value between 9 and 10 (Ki between 1 nM and 0.1 nM)) | A (A represents a value of 3 or above) | E (E represents a pKi value of 7 or below (Ki of 100 nM or above))
7 | C=CC(=O)N1CCN(CCn2c(=O)ccc3cnc(Nc4cnn(C5CCN(C)CC5)c4)nc32)CC1 [Example 43] | C (C represents a pIC50 value between 6 and 6.7 (IC50 between 1 μM and 200 nM)) | B (B represents pKi value between 9 and 10 (Ki between 1 nM and 0.1 nM)) | A (A represents a value of 3 or above) | E (E represents a pKi value of 7 or below (Ki of 100 nM or above))
8 | C=CC(=O)N1CCN(CCn2c(=O)ccc3cnc(Nc4ccc(N5CCN(C6CC6)CC5)cc4)nc32)CC1 [Example 50] | C (C represents a pIC50 value between 6 and 6.7 (IC50 between 1 μM and 200 nM)) | B (B represents pKi value between 9 and 10 (Ki between 1 nM and 0.1 nM)) | A (A represents a value of 3 or above) | E (E represents a pKi value of 7 or below (Ki of 100 nM or above))
9 | C=CC(=O)N1CCN(CCn2c(=O)ccc3cnc(Nc4ccc(N5C[C@@H](C)N(C)[C@H](C)C5)cc4)nc32)[C@@H](C)C1 [Example 199] | A (A represents a pIC50 value≥7.5 (IC50≤32 nM)) | B (B represents pKi value between 9 and 10 (Ki between 1 nM and 0.1 nM)) | A (A represents a value of 3 or above) | E (E represents a pKi value of 7 or below (Ki of 100 nM or above))
